Measurements: US11040016B2, “Composition for alleviating, preventing or treating female menopausal symptoms, containing, as active ingredient, pinitol, D-chiro-inositol or analog compounds thereof” (DY NATURAL CO., LTD, priority 2016, dated 2021)

Experiments:
[1] = system: sex-hormone binding globulin (SHBG); assay: SHBG level in the blood of white rats after 8 weeks oral administration (ELISA); format: in vivo, Sprague-Dawley (SD) white rats; details: female SD rats
Experimental: Pinitol and D-chiro-inositol were purchased from Biosearch Life (Camino de Purchil, 66. 18004 Granada, Spain). Six-month-old female Sprague-Dawley (SD) white rats (Orient, Korea) were divided into a test group administered with pinitol or D-chiro-inositol and a control group administered with physiological saline while ten animals were used in the test for each of the groups. The rats were bred in a breeding room controlled under a temperature of 22±1° C., humidity of 55±1%, and 12-hour light/dark cycle. The rats were given free access to food and water, and for 7 days after entrance, the rats were acclimated for the breeding environment, and then were used for tests. Physiological saline and pinitol or D-chiro-inositol were orally administered at various doses (10 mg/kg, 20 mg/kg, or 40 mg/kg) at the same amount once a day for 8 weeks. After the last oral administration, the rats were fasted overnight and then anesthetized with ether, and the abdomen was cut open, and then blood was collected from the abdominal vein. The collected blood was transferred to a heparinized tube, followed by centrifugation at 2.500 rpm for 15 minutes for 4° C., thereby separating serum and plasma. The separated blood was stored at −80° C. until the next test. The levels of hormones and proteins in the blood were measured according to the manufacturer's manual by using the ELISA kit (Enzo Life Sciences, U.S.A.) for measurement of 17β-estradiol or sex-hormone binding globulin (SHBG) in the blood. In order to analyze the effects of pinitol or D-chiro-inositol (DCI) on the levels or activity of female hormones, which are blood indexes associated with menopausal symptoms, in female mature Sprague-Dawley (SD) white rats, a test was conducted. The physiological saline for the control group or pinitol or D-chiro-inositol (10 mg/kg, 20 mg/kg, and 40 mg/kg) for the test groups were orally administered at the predetermined time once a day for 8 weeks. After the completion of the last administration, the 17β-estradiol and sex-hormone binding globulin (SHBG) levels in the blood were measured by ELISA kit. […] Therefore, it could be confirmed that the SHBG level in the blood was decreased by pinitol or D-chiro-inositol, leading to increases in activity of female hormones. According to the test results, it was confirmed that both pinitol and D-chiro-inositol can alleviate female menopause symptoms by increasing the 17β-estradiol levels in the blood and decreasing the SHBG levels in the blood.

[2] = system: sex-hormone binding globulin (SHBG); assay: SHBG level in the blood of middle-aged women after 8 weeks administration (ELISA); format: in vivo
Experimental: Forty middle-aged women aged 40 or more were divided into four groups each having ten women, and the four groups were designated as a control group taking a placebo and three test groups taking pinitol. Similarly, forty middle-aged women aged 40 or more were divided into four groups each having ten women, and the four groups were designated as a control group taking a placebo and three test groups taking D-chiro-inositol. Thereafter, the placebo, pinitol, or D-chiro-inositol was administered at various concentrations for 8 weeks in a double-blind fashion. […] The blood was taken from the arm vein at the same time, 2:00 pm, before intake and after the last intake, and then transferred to heparinized tubes, followed by centrifugation at 2,500 rpm (4° C.) for 15 minutes, and therefore, the plasma was separated by transfer to new tubes. The separated plasma was used to measure sex hormone levels in the blood. The levels of hormones and proteins in the blood were measured according to the manufacturer's manual by using the ELISA kit (Enzo Life Sciences, U.S.A.) for measurement of 17β-estradiol or sex-hormone binding globulin (SHBG) in the blood. In order to analyze the effects of pinitol and D-chiro-inositol on sex hormones in middle-aged women, forty middle-aged 40 or more were divided into four groups each having ten women, and the four groups were designated as a control group taking a placebo and three test groups taking pinitol. Similarly, forty middle-aged women aged 40 or more were divided into four groups each having ten women, and the four groups were designated as a control group taking a placebo and three test groups taking D-chiro-inositol. Thereafter, the placebo, pinitol, or D-chiro-inositol was administered at various concentrations for 8 weeks in a double-blind fashion. […] As a result of the test, there was no significant change in 17β-estradiol level in the blood in the women between pre- and pro-administration of the placebo. […] According to the test results, it could be confirmed that, similar to the results in the white rats, pinitol and D-chiro-inositol can alleviate female menopause symptoms by increasing the 17β-estradiol levels in the blood and decreasing the SHBG levels in the blood.

middle-aged women = assay: Menopause Rating Scale (MRS) survey in middle-aged women; format: in vivo; details: for alleviation rate of menopausal symptoms: MRS vs placebo; for MRS score post-taking compared with placebo taking group and pre-taking: middle-aged women, 600, 1,200, 2,400 mg once a day for 8 weeks
Experimental: Forty middle-aged women aged 40 or more were divided into four groups each having ten women, and the four groups were designated as a control group taking a placebo and three test groups taking pinitol. Similarly, forty middle-aged women aged 40 or more were divided into four groups each having ten women, and the four groups were designated as a control group taking a placebo and three test groups taking D-chiro-inositol. Thereafter, the placebo, pinitol, or D-chiro-inositol was administered at various concentrations for 8 weeks in a double-blind fashion. The pinitol, D-chiro-inositol, or placebo was administered at 600 mg, 1,200 mg, and 2,400 mg a day. The blood was taken from the arm vein at the same time, 2:00 pm, before intake and after the last intake, and then transferred to heparinized tubes, followed by centrifugation at 2,500 rpm (4° C.) for 15 minutes, and therefore, the plasma was separated by transfer to new tubes. The separated plasma was used to measure sex hormone levels in the blood. Since subjective symptoms account for a large proportion of menopausal symptoms, several measures are used to assess the degrees of menopausal clinical symptoms. For assessment of menopausal clinical symptoms, Kupperman's index has been used for a long time. However, questions of vaginal dryness, reduction of sexual desire, and the like, are missing in the Kupperman's index, and therefore, the Menopause Rating Scale (MRS) and the Menopause-Specific Quality of Life Questionnaire (MENQOL), which are questionnaires supplementing such questions, are being widely used in current clinical trials. The MRS has been globally recognized to have reliability and feasibility due to its advantages of having a small number of questions, a total of 11 questions, and being simple and convenient, and thus the MRS is being recited in many studies (Table 1). In the present invention, the severity of menopausal symptoms was measured and analyzed by allowing the above middle-aged women clinical subjects to fill out the MRS questionnaire. The alleviating effects on female menopause symptoms were assessed by allowing the middle-aged women clinical subjects to fill out the Menopause Rating Scale (MRS) questionnaire pre- and post-intake of the placebo, pinitol, or D-chiro-inositol. [table] In order to assess the alleviating effects of female menopause symptoms by pinitol and D-chiro-inositol, a Korean-version Menopause Rating Scale (MRS) survey was performed. Eighty middle-aged 40 or more were divided into four groups, a placebo group and pinitol administration groups, each having ten women, and similarly, were divided into four groups, a placebo group and D-chiro-inositol administration groups, each having ten women. Thereafter, the placebo and 600 mg, 1,200 mg, and 2,400 mg of pinitol or D-chiro-inositol were administered once a day for 8 weeks in a double-blind fashion. The women were allowed to fill out the Menopause Rating Scale (MRS) questionnaire before and after taking the placebo, pinitol, or D-chiro-inositol. The scores of the MRS questionnaire were calculated as a total score. The 0-4 points indicate a good menopausal state, which is a smooth menopause state. A total of 5-8 points indicate a slight menopausal state, requiring management. A total of 9-15 points indicate a severe menopausal state, requiring precise diagnosis and treatment by specialists because of menopausal diseases. Last, a total of 16 points or more indicates an extremely severe menopausal state, thereby urgently requiring therapy through minute management and long-term plans. […] The MRS measurement results could confirm that pinitol alleviated female menopause symptoms caused by female hormone reduction, such as reduction of sexual desire, insomnia, urogenital diseases and infections, joint and muscular diseases, depression, and hypersensitiveness.

17β-estradiol [3] = assay: 17β-estradiol level in the blood of white rats after 8 weeks oral administration (ELISA); format: in vivo, Sprague-Dawley (SD) white rats; details: female SD rats, 10, 20, 40 mg/kg oral once a day for 8 weeks, vs physiological saline
Experimental: Pinitol and D-chiro-inositol were purchased from Biosearch Life (Camino de Purchil, 66. 18004 Granada, Spain). Six-month-old female Sprague-Dawley (SD) white rats (Orient, Korea) were divided into a test group administered with pinitol or D-chiro-inositol and a control group administered with physiological saline while ten animals were used in the test for each of the groups. The rats were bred in a breeding room controlled under a temperature of 22±1° C., humidity of 55±1%, and 12-hour light/dark cycle. The rats were given free access to food and water, and for 7 days after entrance, the rats were acclimated for the breeding environment, and then were used for tests. Physiological saline and pinitol or D-chiro-inositol were orally administered at various doses (10 mg/kg, 20 mg/kg, or 40 mg/kg) at the same amount once a day for 8 weeks. […] The levels of hormones and proteins in the blood were measured according to the manufacturer's manual by using the ELISA kit (Enzo Life Sciences, U.S.A.) for measurement of 17β-estradiol or sex-hormone binding globulin (SHBG) in the blood. […] After the completion of the last administration, the 17β-estradiol and sex-hormone binding globulin (SHBG) levels in the blood were measured by ELISA kit. […]

17β-estradiol [4] = assay: 17β-estradiol level in the blood of middle-aged women after 8 weeks administration (ELISA); format: in vivo; details: middle-aged women, 600, 1,200, 2,400 mg a day for 8 weeks
Experimental: Forty middle-aged women aged 40 or more were divided into four groups each having ten women, and the four groups were designated as a control group taking a placebo and three test groups taking pinitol. Similarly, forty middle-aged women aged 40 or more were divided into four groups each having ten women, and the four groups were designated as a control group taking a placebo and three test groups taking D-chiro-inositol. Thereafter, the placebo, pinitol, or D-chiro-inositol was administered at various concentrations for 8 weeks in a double-blind fashion. The pinitol, D-chiro-inositol, or placebo was administered at 600 mg, 1,200 mg, and 2,400 mg a day. The blood was taken from the arm vein at the same time, 2:00 pm, before intake and after the last intake, and then transferred to heparinized tubes, followed by centrifugation at 2,500 rpm (4° C.) for 15 minutes, and therefore, the plasma was separated by transfer to new tubes. The separated plasma was used to measure sex hormone levels in the blood. The levels of hormones and proteins in the blood were measured according to the manufacturer's manual by using the ELISA kit (Enzo Life Sciences, U.S.A.) for measurement of 17β-estradiol or sex-hormone binding globulin (SHBG) in the blood. In order to analyze the effects of pinitol and D-chiro-inositol on sex hormones in middle-aged women, forty middle-aged 40 or more were divided into four groups each having ten women, and the four groups were designated as a control group taking a placebo and three test groups taking pinitol. Similarly, forty middle-aged women aged 40 or more were divided into four groups each having ten women, and the four groups were designated as a control group taking a placebo and three test groups taking D-chiro-inositol. Thereafter, the placebo, pinitol, or D-chiro-inositol was administered at various concentrations for 8 weeks in a double-blind fashion. The pinitol or D-chiro-inositol was administered at 600 mg, 1,200 mg, and 2,400 mg a day for 8 weeks. As a result of the test, there was no significant change in 17β-estradiol level in the blood in the women between pre- and pro-administration of the placebo. […] According to the test results, it could be confirmed that, similar to the results in the white rats, pinitol and D-chiro-inositol can alleviate female menopause symptoms by increasing the 17β-estradiol levels in the blood and decreasing the SHBG levels in the blood.

[5] = 10 mg/kg oral once a day for 8 weeks
[6] = 20 mg/kg oral once a day for 8 weeks
[7] = 40 mg/kg oral once a day for 8 weeks
[8] = middle-aged women, 600 mg a day for 8 weeks
[9] = middle-aged women, 1,200 mg a day for 8 weeks
[10] = middle-aged women, 1,400 mg administration group, 8 weeks
[11] = middle-aged women, 600 mg once a day for 8 weeks
[12] = middle-aged women, 1,200 mg once a day for 8 weeks
[13] = middle-aged women, 2,400 mg once a day for 8 weeks

| Compound | decrease of SHBG level in the blood compared with control group [1, 5] | decrease of SHBG level in the blood compared with control group [1, 6] [nmol/L] | decrease of SHBG level in the blood compared with control group [1, 7] [nmol/L] | decrease of SHBG level in the blood compared with placebo administration group [2, 8] | decrease of SHBG level in the blood compared with placebo administration group [2, 9] [nmol/L] | decrease of SHBG level in the blood compared with placebo administration group [2, 10] [nmol/L] | decrease of average MRS score compared with placebo group (middle-aged women; [11]) [points] | alleviation rate of menopausal symptoms (middle-aged women; [11]) | decrease of average MRS score compared with placebo group (middle-aged women; [12]) [points] | alleviation rate of menopausal symptoms (middle-aged women; [12]) [%] | decrease of average MRS score compared with placebo group (middle-aged women; [13]) [points] | alleviation rate of menopausal symptoms (middle-aged women; [13]) [%] | MRS score post-taking compared with placebo taking group and pre-taking (middle-aged women) | 17β-estradiol level in the blood compared with control group (17β-estradiol [3]) | 17β-estradiol level in the blood compared with placebo administration group (17β-estradiol [4]) | 17β-estradiol level in the blood, pre- versus post-administration (17β-estradiol [4]) | SHBG level in the blood, pre- versus post-administration ([2]; middle-aged women, 8 weeks) |
| --- | --- | --- | --- | --- | --- | --- | --- | --- | --- | --- | --- | --- | --- | --- | --- | --- | --- |
| O[C@H]1[C@H](O)[C@H](O)[C@@H](O)[C@H](O)[C@H]1O [D-chiro-inositol] | about 7.0 nmol/L | ~16.2 | ~21.1 | about 8.7 nmol/L | ~15.9 | ~18.4 | 5.7 | about 40.7% | 9.7 | ~69.3 | 10.3 | ~73.6 | significantly decreased | significantly increased in a concentration-dependent manner | significantly increased in a concentration-dependent manner | no particular difference | – |
| CO[C@H]1[C@H](O)[C@@H](O)[C@@H](O)[C@H](O)[C@@H]1O [pinitol] | about 4.2 nmol/L | ~10.0 | ~12.2 | about 8.3 nmol/L | ~16.0 | ~18.6 | 4.3 | about 32.6% | 8.4 | ~63.6 | 9.1 | ~68.9 | significantly decreased | significantly increased in a concentration-dependent manner | significantly increased in a concentration-dependent manner | no particular difference | no particular difference |
